# Results as given in US8796467B2, “Compounds” (Boehringer Ingelheim International GmbH, priority 2011, dated 2014).
# pEC50: −log10 of the molar value.
# Biological target: T1, human recombinant mGluR5 (Homo sapiens, UniProt P41594)
# T1 construct: expressed in transfected cells; hygromycin and geneticin selection, tetracycline-regulated
# Assay: Positive modulation of mGluR5, calcium based FLIPR assay in HEK 293 cell line
# Settings: EC50 of the modulation; HEK 293 cells expressing human recombinant mGluR5; glutamate at approximately 5% basal stimulation; peak height of Ca fluorescence signal
# Method: The positive modulation of mGluR5 is measured in a HEK 293 cell line expressing human recombinant mGluR5 and is detected with calcium based FLIPR assay. The cells are cultured with DMEM supplemented with 10% FCS, 2 μg/mL tetracycline, 100 μg/mL hygromycin and 500 μg/mL gneticin. The cell culture media is exchanged for tetracycline-free cell culture media 3-7 days before the assay. One day before the assay the cell culture medium is exchanged to DMEM without glutamine and phenol red and supplemented with 10% FCS, 100 μg/mL hygromycin and 500 μg/mL geneticin. On the assay day, the medium of the subconfluent cultures is removed and the cells are detached by addition of 2.5 ml EDTA (0.02%) per 175 cm2 culture flask for 1 minute. The cells are resuspend in Ringer solution (140 mM NaCl, 5 mM KCl, 2.5 mM CaCl2, 1.5 mM MgCl2, 5 mM Glucose, 10 mM Hepes; adjusted to pH 7.4 with NaOH), pooled and Ringer solution added to adjust the volume to 50 mL. The cell suspension is centrifuged for 5 min at 1500 U/min (425 g). The supernatant is removed and the cells washed a second time with 50 ml fresh Ringer solution and centrifuged again as before. The supernatant is again removed and the pellet resuspended in Ringer solution to 1,000,000 cells/ml (1×10^6 cells/mL). The cells are plated onto BD BioCoat Poly-D-Lysine 384 well plates (20,000 cells/well; 20 μl/well). The lid covered plates are then incubated until use at 37° C./10% CO2. For dye loading, 20 μl of Calcium-4 assay kit solution (prepared according to the manufacturer's description in Ringer solution) are added to the cells and the plates are incubated for 80 min 37° C. and then 10 min at room temperature.
# Controls, Compound Dilution and Assay Execution:
# Each assay plate contained wells with “high” and “low” controls: • Low controls 1% DMSO/ringer solution+basal glutamate activation (defined as 100% CTL). • High controls 10 μM CDPPB+basal glutamate activation (defined as 200% CTL).
# Test compounds are dissolved and diluted in DMSO to 100-fold the desired concentrations. In a second step, the compounds are diluted in Ringer solution such that the compounds are 4-fold more concentrated than the desired final assay concentration. The final DMSO concentration was 1%.
# 20 μl of each compound solution are then transferred to the assay plate and the Ca2+ kinetic is measured to determine any intrinsic compound activity. After 5 min incubation in the FLIPR device, the second stimulation with 20 μl of glutamate in Ringer solution (glutamate concentration adjusted to approximately 5% basal stimulation of the maximal possible glutamate effect) is added and the kinetic Ca2+ response of the wells was measured for the modulation effect.
# The peak height of the Ca release related fluorescence signal (9-66) is used for the EC50.
# The EC50 of the modulation is calculated over a nonlinear regression with GraphPad Prism (Table 1).
# T1 sequence (P41594 21-1212): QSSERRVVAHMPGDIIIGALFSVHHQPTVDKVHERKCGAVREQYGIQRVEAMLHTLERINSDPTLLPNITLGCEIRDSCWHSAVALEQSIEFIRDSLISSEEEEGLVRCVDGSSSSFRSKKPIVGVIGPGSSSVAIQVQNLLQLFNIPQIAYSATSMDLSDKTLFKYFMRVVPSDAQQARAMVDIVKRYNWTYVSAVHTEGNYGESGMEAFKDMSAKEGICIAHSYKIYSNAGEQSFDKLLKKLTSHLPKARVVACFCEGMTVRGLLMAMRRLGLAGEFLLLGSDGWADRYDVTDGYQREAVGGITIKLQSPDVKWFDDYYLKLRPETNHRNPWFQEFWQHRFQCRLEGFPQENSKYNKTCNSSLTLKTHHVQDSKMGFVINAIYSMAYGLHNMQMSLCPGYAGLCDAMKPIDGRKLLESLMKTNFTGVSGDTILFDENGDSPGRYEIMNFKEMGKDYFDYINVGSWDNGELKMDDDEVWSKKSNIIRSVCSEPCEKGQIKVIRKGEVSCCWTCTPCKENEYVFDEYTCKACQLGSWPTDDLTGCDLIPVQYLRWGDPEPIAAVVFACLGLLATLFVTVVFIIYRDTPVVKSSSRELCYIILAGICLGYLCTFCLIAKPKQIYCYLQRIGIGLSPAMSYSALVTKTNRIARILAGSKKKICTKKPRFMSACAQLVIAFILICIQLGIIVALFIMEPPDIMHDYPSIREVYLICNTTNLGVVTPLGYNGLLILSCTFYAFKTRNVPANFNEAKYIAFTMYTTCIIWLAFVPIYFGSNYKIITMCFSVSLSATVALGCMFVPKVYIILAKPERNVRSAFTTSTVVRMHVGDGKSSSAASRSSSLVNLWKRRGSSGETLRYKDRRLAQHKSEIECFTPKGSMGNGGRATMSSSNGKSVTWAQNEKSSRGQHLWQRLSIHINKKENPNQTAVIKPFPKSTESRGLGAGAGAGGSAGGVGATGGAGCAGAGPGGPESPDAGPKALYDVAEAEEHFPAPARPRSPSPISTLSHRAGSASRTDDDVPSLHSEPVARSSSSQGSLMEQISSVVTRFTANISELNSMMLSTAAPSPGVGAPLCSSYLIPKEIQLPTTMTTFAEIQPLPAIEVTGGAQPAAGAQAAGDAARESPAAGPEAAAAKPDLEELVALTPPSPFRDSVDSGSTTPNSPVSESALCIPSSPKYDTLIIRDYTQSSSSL
row,Compound,pEC50
1,"Cc1nc2c(s1)CCN(C(=O)Cn1cc(-c3ccc(F)c(C)c3)nc1-c1ccccc1)CC2 [Example 7.01.01., 2-(4-(4-fluoro-3-methyl-phenyl)-2-phenyl-imidazol-1-yl)-1-(2-methyl-4,5,7,8-tetrahydro-thiazolo[4,5-d]azepin-6-yl)-ethanone]",7.05
2,Cc1cc(-c2cn(CC(=O)N3CCc4nc(N)sc4CC3)c(-c3ccccc3)n2)ccc1F [Example 7.01.02.],6.65
3,Cc1nc2c(o1)CN(C(=O)Cn1cc(-c3ccc(F)c(C)c3)nc1-c1ccccc1)CC2 [Example 7.01.03.],7.05
4,Cc1nc2c(o1)CN(C(=O)Cn1cc(-c3ccc(F)c(C)c3)nc1C1CCCCC1)CC2 [Example 7.01.04.],6.05
5,Cc1cc(-c2cn(CC(=O)N3CCc4nc(N)sc4CC3)c(C3CCCCC3)n2)ccc1F [Example 7.01.05.],6.21
6,Cc1nc2c(s1)CCN(C(=O)Cn1cc(-c3ccc(F)c(C)c3)nc1C1CCCCC1)CC2 [Example 7.01.06.],6.48
7,Cc1nc2c(o1)CN(C(=O)Cn1cc(-c3ccc(F)cc3)nc1-c1ccccc1)CC2 [Example 7.01.07.],6.03
8,Nc1nc2c(s1)CCN(C(=O)Cn1cc(-c3ccc(F)cc3)nc1-c1ccccc1)CC2 [Example 7.01.08.],6.13
9,Cc1nc2c(s1)CCN(C(=O)Cn1cc(-c3ccc(F)cc3)nc1-c1ccccc1)CC2 [Example 7.01.09.],6.59
10,Cc1nc2c(s1)CCN(C(=O)Cn1cc(-c3ccc(F)c(C)c3)nc1C(C)C)CC2 [Example 7.01.10.],6.07
11,Cc1cc(-c2cn(CC(=O)N3CCc4nc(N)sc4CC3)c(-c3ccc(F)cc3)n2)ccc1F [Example 7.01.11.],6.97
12,Cc1nc2c(s1)CCN(C(=O)Cn1cc(-c3ccc(F)c(C)c3)nc1-c1ccc(F)cc1)CC2 [Example 7.01.12.],7.11
13,Cc1nc2c(o1)CN(C(=O)Cn1cc(-c3ccc(F)c(C)c3)nc1-c1ccc(F)cc1)CC2 [Example 7.01.13.],7.40
14,Cc1nc2c(s1)CN(C(=O)Cn1cc(-c3ccc(F)c(C)c3)nc1-c1ccc(F)cc1)C2 [Example 7.01.14.],7.19
15,Cc1nc2c(o1)CN(C(=O)Cn1cc(-c3ccc(F)cc3)nc1-c1ccc(F)cc1)CC2 [Example 7.01.15.],6.53
16,Cc1nc2c(s1)CN(C(=O)Cn1cc(-c3ccc(F)cc3)nc1-c1ccc(F)cc1)C2 [Example 7.01.16.],6.20
17,Cc1nc2c(s1)CCN(C(=O)Cn1cc(-c3ccc(F)cc3)nc1-c1ccc(F)cc1)CC2 [Example 7.01.17.],7.02

row,Compound,pEC50
1,Nc1nc2c(s1)CCN(C(=O)Cn1cc(-c3ccc(F)cc3)nc1-c1ccc(F)cc1)CC2 [Example 7.01.18.],6.35
2,Cc1cccc(-c2cn(CC(=O)N3Cc4nc(C)sc4C3)c(-c3ccccc3)n2)c1 [Example 7.01.19.],6.24
3,Cc1cccc(-c2cn(CC(=O)N3CCc4nc(C)sc4CC3)c(-c3ccccc3)n2)c1 [Example 7.01.20.],6.97
4,Cc1cccc(-c2cn(CC(=O)N3CCc4nc(N)sc4CC3)c(-c3ccccc3)n2)c1 [Example 7.01.21.],6.56
5,Cc1cccc(-c2cn(CC(=O)N3CCc4nc(C)oc4C3)c(-c3ccccc3)n2)c1 [Example 7.01.22.],6.60
6,Cc1cc(-c2cn(CC(=O)N3CCN(c4cccc(C#N)c4)C(=O)C3)c(-c3ccc(F)cc3)n2)ccc1F [Example 7.01.23],6.37
7,COc1cccc(N2CCN(C(=O)Cn3cc(-c4ccc(F)c(C)c4)nc3-c3ccc(F)cc3)CC2=O)c1 [Example 7.01.24],7.05
8,Cc1cc(-c2cn(CC(=O)N3CCN(c4cc(F)ccn4)C(=O)C3)c(-c3ccc(F)cc3)n2)ccc1F [Example 7.01.25],7.38
9,Cc1cc(-c2cn(CC(=O)N3CCN(c4ccccn4)C(=O)C3)c(-c3ccc(F)cc3)n2)ccc1F [Example 7.01.26],7.36
10,Cc1cc(-c2cn(CC(=O)N3CCc4nc(N)sc4C3)c(-c3ccccc3)n2)ccc1F [Example 7.01.27],6.76
11,CC(=O)Nc1nc2c(s1)CCN(C(=O)Cn1cc(-c3ccc(F)c(C)c3)nc1-c1ccccc1)CC2 [Example 7.01.28],6.11
12,Cc1nc2c(o1)CCN(C(=O)Cn1cc(-c3ccc(F)c(C)c3)nc1-c1ccccc1)CC2 [Example 7.01.29],6.79
13,Cc1cc(-c2cn(CC(=O)N3CCc4ncsc4CC3)c(-c3ccccc3)n2)ccc1F [Example 7.01.30],6.82
14,Cc1nc2c(s1)CN(C(=O)Cn1cc(-c3ccc(F)c(C)c3)nc1-c1ccccc1)CC2 [Example 7.01.31],6.97
15,Cc1nc2c(o1)CCN(C(=O)Cn1cc(-c3ccc(F)c(C)c3)nc1-c1ccccc1)C2 [Example 7.01.32],7.21
16,Cc1nc2c(o1)CN(C(=O)Cn1cc(-c3ccc(F)c(C)c3)nc1-c1ccccc1)C2 [Example 7.01.33],6.90
17,Cc1nc2c(o1)CN(C(=O)Cn1cc(-c3ccc(F)c(C)c3)nc1-c1ccc(F)cc1)C2 [Example 7.01.34],7.00
